Measured values as given in ChEMBL document CHEMBL1145006 (J Med Chem, 2003).
Starred links: 1 amine or outer side, 2 acyl side, 3 side chain; linkers in the order of their positions; H or OH if unused. Positions of bridges follow the written chain, without caps; N, C: chain ends. Non-standard residues stand in square brackets, D forms with d. Residues, ends and D or L forms follow the SMILES beside them. Groups on a side chain read outwards from the residue. *: point of attachment. Ethylenediamine = C(CN[*:2])N[*:1]; Hyp = O=C(O)[C@@H]1C[C@@H](O)CN1; CO = O=C([*:1])[*:2]; Bn = c1ccc(C*)cc1

Legend:
Format in all cases: cell-based
[1] = target: Somatostatin receptor type 5 (Homo sapiens, UniProt P35346); test: Binding affinity towards human Somatostatin receptor type 5 (sst5) using Tyr11-[125I]-SRIF as radioligand was determined in COS cell
Chain of Somatostatin receptor type 5 (P35346 whole entry): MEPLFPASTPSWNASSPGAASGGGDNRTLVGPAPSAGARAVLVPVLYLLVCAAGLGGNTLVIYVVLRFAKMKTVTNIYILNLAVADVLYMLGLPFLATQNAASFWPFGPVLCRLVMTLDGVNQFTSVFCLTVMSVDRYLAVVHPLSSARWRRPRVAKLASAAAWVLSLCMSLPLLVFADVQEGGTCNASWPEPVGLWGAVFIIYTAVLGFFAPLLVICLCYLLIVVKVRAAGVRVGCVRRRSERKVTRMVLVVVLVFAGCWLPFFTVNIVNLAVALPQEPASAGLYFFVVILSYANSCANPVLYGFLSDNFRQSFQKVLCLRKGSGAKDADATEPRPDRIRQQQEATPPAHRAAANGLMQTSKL

[2] = target: Somatostatin receptor type 3 (Homo sapiens, UniProt P32745); test: Binding affinity towards human Somatostatin receptor type 3 (sst3) using Tyr11-[125I]-SRIF as radioligand was determined in CHO cells
Chain of Somatostatin receptor type 3 (P32745 whole entry): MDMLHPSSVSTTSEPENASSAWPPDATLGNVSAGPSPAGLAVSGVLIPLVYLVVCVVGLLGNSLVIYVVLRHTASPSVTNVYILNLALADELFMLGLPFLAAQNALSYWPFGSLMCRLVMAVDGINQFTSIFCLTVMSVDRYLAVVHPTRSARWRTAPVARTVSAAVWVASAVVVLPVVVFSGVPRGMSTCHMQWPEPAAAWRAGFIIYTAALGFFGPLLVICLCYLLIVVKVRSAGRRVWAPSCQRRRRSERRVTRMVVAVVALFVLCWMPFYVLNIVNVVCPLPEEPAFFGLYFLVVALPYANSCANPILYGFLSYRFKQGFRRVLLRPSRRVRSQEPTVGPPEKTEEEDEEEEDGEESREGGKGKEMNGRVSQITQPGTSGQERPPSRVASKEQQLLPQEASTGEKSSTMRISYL

[3] = target: Somatostatin receptor type 2 (Homo sapiens, UniProt P30874); test: Binding affinity towards human Somatostatin receptor type 2 (sst2) using Tyr11-[125I]-SRIF as radioligand was determined in CHO cells
Chain of Somatostatin receptor type 2 (P30874 whole entry): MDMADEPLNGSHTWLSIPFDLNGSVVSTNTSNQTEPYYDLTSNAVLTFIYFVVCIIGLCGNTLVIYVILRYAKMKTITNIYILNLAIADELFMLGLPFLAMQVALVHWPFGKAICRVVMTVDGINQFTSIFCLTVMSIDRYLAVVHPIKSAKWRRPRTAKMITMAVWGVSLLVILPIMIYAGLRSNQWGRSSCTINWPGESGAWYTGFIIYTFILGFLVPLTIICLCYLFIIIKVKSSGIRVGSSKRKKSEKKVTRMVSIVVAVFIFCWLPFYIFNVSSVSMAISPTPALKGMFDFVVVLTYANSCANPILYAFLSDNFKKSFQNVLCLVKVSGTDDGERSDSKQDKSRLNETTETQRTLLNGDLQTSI

[4] = target: Somatostatin receptor type 1 (Homo sapiens, UniProt P30872); test: Binding affinity towards human Somatostatin receptor type 1 (sst1) using Tyr11-[125I]-SRIF as radioligand was determined in CHO cells
Chain of Somatostatin receptor type 1 (P30872 whole entry): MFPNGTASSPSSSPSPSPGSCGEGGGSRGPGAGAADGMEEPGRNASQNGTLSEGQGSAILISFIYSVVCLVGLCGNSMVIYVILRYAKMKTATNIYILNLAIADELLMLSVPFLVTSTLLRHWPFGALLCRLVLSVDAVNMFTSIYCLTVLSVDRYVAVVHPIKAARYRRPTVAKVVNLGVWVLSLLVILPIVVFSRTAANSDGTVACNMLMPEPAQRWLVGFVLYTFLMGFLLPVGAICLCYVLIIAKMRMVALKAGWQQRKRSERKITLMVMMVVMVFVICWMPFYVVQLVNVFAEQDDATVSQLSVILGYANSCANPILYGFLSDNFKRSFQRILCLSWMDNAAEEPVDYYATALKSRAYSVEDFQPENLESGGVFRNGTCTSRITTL

[5] = target: Somatostatin receptor type 4 (Homo sapiens, UniProt P31391); test: Binding affinity towards human Somatostatin receptor type 4 (sst4) using Tyr11-[125I]-SRIF as radioligand was determined in CHO cells; details: for Log Ki: cho
Chain of Somatostatin receptor type 4 (P31391 whole entry): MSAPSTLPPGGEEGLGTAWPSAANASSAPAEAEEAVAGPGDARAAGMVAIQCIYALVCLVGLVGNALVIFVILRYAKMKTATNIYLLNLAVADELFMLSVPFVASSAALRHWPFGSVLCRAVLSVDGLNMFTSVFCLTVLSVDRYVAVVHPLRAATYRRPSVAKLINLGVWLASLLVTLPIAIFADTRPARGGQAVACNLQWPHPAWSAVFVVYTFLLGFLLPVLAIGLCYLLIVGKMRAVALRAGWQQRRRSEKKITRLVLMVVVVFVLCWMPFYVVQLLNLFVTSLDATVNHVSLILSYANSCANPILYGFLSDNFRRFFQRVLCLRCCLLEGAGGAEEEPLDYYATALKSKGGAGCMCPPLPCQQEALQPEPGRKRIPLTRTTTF

Row | Structure (SMILES) | Ki [1] [nM] | Ki [2] [nM] | Ki [3] [nM] | Ki [4] [nM] | Log Ki [5] | Ki [5] [nM]
1 | NCCCC[C@@H]1NC(=O)[C@@H](Cc2c[nH]c3ccccc23)NC(=O)[C@H](Cc2ccc(O)cc2)NC(=O)[C@@H]2C[C@@H](OC(=O)NCCN)CN2C(=O)[C@H](Cc2ccccc2)NC(=O)[C@H](Cc2ccc(OCc3ccccc3)cc2)NC1=O | 0.251 | 0.631 | 0.794 | 1.58 | > -7 | 
2 | C[C@H](N)C(=O)NCC(=O)N[C@H]1CSSC[C@@H](C(N)=O)NC(=O)[C@H](CO)NC(=O)[C@H]([C@@H](C)O)NC(=O)[C@H](Cc2ccccc2)NC(=O)[C@H]([C@@H](C)O)NC(=O)[C@H](C)NC(=O)[C@H](Cc2c[nH]c3ccccc23)NC(=O)[C@H](Cc2ccccc2)NC(=O)[C@H](Cc2ccccc2)NC(=O)[C@H](CC(N)=O)NC(=O)[C@H](CCCCN)NC1=O (H-AGCKNFFWATFTSC-NH2; disulfide 3-14) | 100 | 1000 | 1000 | 1000 |  | > 1000
3 | C[C@H](N)C(=O)NCC(=O)N[C@H]1CSSC[C@@H](C(N)=O)NC(=O)[C@H](CO)NC(=O)[C@H]([C@@H](C)O)NC(=O)[C@H](Cc2ccccc2)NC(=O)[C@H]([C@@H](C)O)NC(=O)[C@H](CCCCN)NC(=O)[C@H](Cc2c[nH]c3ccccc23)NC(=O)[C@H](C)NC(=O)[C@H](Cc2ccccc2)NC(=O)[C@H](CC(N)=O)NC(=O)[C@H](CCCCN)NC1=O (H-AGCKNFAWKTFTSC-NH2; disulfide 3-14) | 79.4 | 25.1 | 20 | 20 | > -8.7 | 
4 | C[C@H](N)C(=O)NCC(=O)N[C@H]1CSSC[C@@H](C(N)=O)NC(=O)[C@H](CO)NC(=O)[C@H]([C@@H](C)O)NC(=O)[C@H](Cc2ccccc2)NC(=O)[C@H](C)NC(=O)[C@H](CCCCN)NC(=O)[C@H](Cc2c[nH]c3ccccc23)NC(=O)[C@H](Cc2ccccc2)NC(=O)[C@H](Cc2ccccc2)NC(=O)[C@H](CC(N)=O)NC(=O)[C@H](CCCCN)NC1=O (H-AGCKNFFWKAFTSC-NH2; disulfide 3-14) | 0.631 | 1.58 | 1 | 6.31 | > -8.4 | 
5 | NCCCCCNC(=O)O[C@@H]1C[C@H]2C(=O)N[C@@H](Cc3ccccc3)C(=O)N[C@H](Cc3c[nH]c4ccccc34)C(=O)N[C@@H](CCCCN)C(=O)N[C@@H](Cc3ccc(OCc4ccccc4)cc3)C(=O)N[C@@H](Cc3ccccc3)C(=O)N2C1 | 0.631 | 2 | 3.16 | 10 |  | 631
6 | CC(C)[C@@H]1NC(=O)[C@H](CCCCN)NC(=O)[C@@H](Cc2c[nH]c3ccccc23)NC(=O)[C@H](Cc2ccc(O)cc2)NC(=O)[C@@H](NC(=O)[C@H](N)Cc2ccc3ccccc3c2)CSSC[C@@H](C(=O)N[C@H](C(N)=O)[C@@H](C)O)NC1=O [LANREOTIDE] |  |  |  | 501 |  | 
7 | C[C@H](N)C(=O)NCC(=O)N[C@H]1CSSC[C@@H](C(N)=O)NC(=O)[C@H](C)NC(=O)[C@H]([C@@H](C)O)NC(=O)[C@H](Cc2ccccc2)NC(=O)[C@H]([C@@H](C)O)NC(=O)[C@H](CCCCN)NC(=O)[C@H](Cc2c[nH]c3ccccc23)NC(=O)[C@H](Cc2ccccc2)NC(=O)[C@H](Cc2ccccc2)NC(=O)[C@H](CC(N)=O)NC(=O)[C@H](CCCCN)NC1=O (H-AGCKNFFWKTFTAC-NH2; disulfide 3-14) | 0.794 | 0.631 | 0.0794 | 0.158 | > -10 | 
8 | NCCCC[C@@H]1NC(=O)[C@@H](Cc2c[nH]c3ccccc23)NC(=O)[C@H](Cc2ccccc2)NC(=O)[C@@H]2C[C@@H](O)CN2C(=O)[C@H](Cc2ccccc2)NC(=O)[C@H](Cc2ccc(OCc3ccccc3)cc2)NC1=O (cyclo(F[Hyp]F[dW]KY(Bn))) | 0.316 | 1.58 | 0.794 | 63.1 |  | 316
9 | C[C@H](N)C(=O)NCC(=O)N[C@H]1CSSC[C@@H](C(N)=O)NC(=O)[C@H](CO)NC(=O)[C@H](C)NC(=O)[C@H](Cc2ccccc2)NC(=O)[C@H]([C@@H](C)O)NC(=O)[C@H](CCCCN)NC(=O)[C@H](Cc2c[nH]c3ccccc23)NC(=O)[C@H](Cc2ccccc2)NC(=O)[C@H](Cc2ccccc2)NC(=O)[C@H](CC(N)=O)NC(=O)[C@H](CCCCN)NC1=O (H-AGCKNFFWKTFASC-NH2; disulfide 3-14) | 0.398 | 0.631 | 1.26 | 0.501 | > -9.2 | 

Next, values leading:

Row | Ki [1] [nM] | Ki [2] [nM] | Ki [3] [nM] | Ki [4] [nM] | Log Ki [5] | Ki [5] [nM] | Structure (SMILES)
10 | 0.398 | 0.794 | 2 | 3.98 |  | 501 | NCCCC[C@@H]1NC(=O)[C@@H](Cc2c[nH]c3ccccc23)NC(=O)[C@H](Cc2ccccc2)NC(=O)[C@@H]2C[C@@H](OC(=O)NCCN)CN2C(=O)[C@H](Cc2ccccc2)NC(=O)[C@H](Cc2ccc(OCc3ccccc3)cc2)NC1=O (cyclo(F[Hyp]([CO-Ethylenediamine])F[dW]KY(Bn)))
11 |  |  |  |  | > -7 |  | C[C@@H](O)[C@@H]1NC(=O)[C@H](CCCCN)NC(=O)[C@@H](Cc2c[nH]c3ccccc23)NC(=O)[C@H](Cc2ccccc2)NC(=O)[C@@H]2CCCN2C(=O)[C@H](Cc2ccccc2)NC1=O
12 | 100 | 200 | 20 | 126 | > -7.1 |  | C[C@H](N)C(=O)NCC(=O)N[C@H]1CSSC[C@@H](C(N)=O)NC(=O)[C@H](CO)NC(=O)[C@H]([C@@H](C)O)NC(=O)[C@H](Cc2ccccc2)NC(=O)[C@H]([C@@H](C)O)NC(=O)[C@H](CCCCN)NC(=O)[C@H](Cc2c[nH]c3ccccc23)NC(=O)[C@H](Cc2ccccc2)NC(=O)[C@H](C)NC(=O)[C@H](CC(N)=O)NC(=O)[C@H](CCCCN)NC1=O (H-AGCKNAFWKTFTSC-NH2; disulfide 3-14)
13 |  | 20 | 0.0794 | 158 |  | 158 | CC(C)[C@@H]1NC(=O)[C@H](CCCCN)NC(=O)[C@@H](Cc2c[nH]c3ccccc23)NC(=O)[C@H](Cc2ccc(O)cc2)NC(=O)[C@@H](NC(=O)[C@H](N)Cc2ccccc2)CSSC[C@@H](C(=O)N[C@@H](Cc2c[nH]c3ccccc23)C(N)=O)NC1=O [VAPREOTIDE] (H-[dF]CY[dW]KVCW-NH2; disulfide 2-7)
14 | 79.4 | 1000 | 1000 | 1000 |  | > 1000 | C[C@H](N)C(=O)NCC(=O)N[C@H]1CSSC[C@@H](C(N)=O)NC(=O)[C@H](CO)NC(=O)[C@H]([C@@H](C)O)NC(=O)[C@H](Cc2ccccc2)NC(=O)[C@H]([C@@H](C)O)NC(=O)[C@H](CCCCN)NC(=O)[C@H](C)NC(=O)[C@H](Cc2ccccc2)NC(=O)[C@H](Cc2ccccc2)NC(=O)[C@H](CC(N)=O)NC(=O)[C@H](CCCCN)NC1=O (H-AGCKNFFAKTFTSC-NH2; disulfide 3-14)
15 | 12.6 | 31.6 |  | > 1000 |  |  | CC(C)[C@@H]1NC(=O)[C@H](CCCCN)NC(=O)[C@@H](Cc2c[nH]c3ccccc23)NC(=O)[C@H](Cc2ccc(O)cc2)NC(=O)[C@H](C)N(C)C(=O)[C@H](Cc2ccccc2)NC1=O [SEGLITIDE]
